Measurements: patent US10201583B2, “Antioxidant dietary supplement and related method” (priority 2012, dated 2019)

Experiments:
[1] = test system: HMOX-1 in bovine aortic endothelial cells; conditions: Motterlini et al. 2000; cited from earlier work
[2] = test system: Antioxidant Response Element (ARE); assay: ARE luciferase reporter assay in stably transfected HepG2 cells; format: cell-based, human; conditions: individual ingredient at the noted concentration, 48 h, control sulforaphane 10 μM
Protocol: The formulation including the blend of turmeric, quercetin and rosemary (TQR Blend, also referred to herein as Blend A) was tested to evaluate the ARE of the blend. In particular, the three individual ingredients, turmeric, quercetin and rosemary were tested by themselves and in combination as a blend. In the testing, a conventional assay for determining ARE was utilized. Generally, the assay included the human hepatocyte cell line HepG2 obtained from ATCC of Manassas, Va. that was stably transfected with a vector. The vector contained four repeats of the ARE DNA sequence ([…] ID NO: 1)) upstream of a minimal promoter using the firefly luciferase gene as a reporter. These cells were then treated with the individual ingredients turmeric, quercetin and rosemary, and the TQR Blend in varying concentrations for 48 hours in this and the other noted examples below. The human hepatocytes were lysed, the luciferase substrate, purchased from Biotium of Hayward, Calif., added, and the relative luminescence values were obtained for all samples. The results are shown as a % Response vs. Control. The control substance was sulforaphane at 10 μM.

SMILES | induction of HMOX-1 in endothelial cells [1] | % Response vs. Control in ARE assay ([2]; TQR Blend 50 μg/ml at 1:3:5) | % Response vs. Control in ARE assay ([2]; TQR Blend 60 μg/ml at 1:3:5) | % Response vs. Control in ARE assay ([2]; TQR Blend 70 μg/ml at 1:3:5) | % Response vs. Control in ARE assay ([2]; TQR Blend 80 μg/ml at 1:3:5)
COc1cc(/C=C/C(=O)CC(=O)/C=C/c2ccc(O)c(OC)c2)ccc1O [curcumin] | potent inducer of HMOX-1 |  |  |  | 
O=c1c(O)c(-c2ccc(O)c(O)c2)oc2cc(O)cc(O)c12 [quercetin] |  | about 50% | about 75% | about 80% | about 90%
